EC50 data for one compound are collected here from ChEMBL document CHEMBL1151410, “Plant anticancer agents. XXII. Isolation of a phorbol diester and its delta 5,6-7 beta-hydroperoxide derivative from Ostodes paniculata” (1983).

In brackets after ≈: the same amount, converted by molar mass.

This experiment deals with P388. The experiment is described as follows: Cytotoxicity against mouse P388 cells. Format: functional. The settings on record: read-out: ED50 (the source's name).

With `CCCCCCCC/C=C/C(=O)O[C@@H]1[C@@H](C)[C@@]2(O)[C@H]([C@@H]3C(C)(C)[C@]13OC(C)=O)[C@@H](OO)C(CO)=C[C@]1(O)C(=O)C(C)=C[C@@H]21` [OSTODIN], the EC50 was determined as 0.055 µg/mL (≈ 0.0909 µM).
